This is an account of results in paper PMC12828543, “Preclinical drug screen identifies WEE1 inhibitor and vinca alkaloid as a combination treatment concept for Li-Fraumeni syndrome medulloblastoma” (iScience, 2025).

Data set [1] has as its system UW228-2. The experiment in a line: Validation in established cell lines (0.1-10,000 nM, triplicates, 72 h, CellTiter-Glo 2.0). The class given is cell-based, human. The following applies: for IC50: UW228-2, metabolic activity. How it is done:
(§1) Following 72-hour exposure cell viability was measured using CellTiter-Glo 2.0 Assay (cat.no. G9241, Promega) and the Spark microplate reader (Tecan).
(§2) DSS3 (single drug screen and validation steps) and Emax (validation step only) were estimated based on four-parameter logistic curves.
For orientation: In ATP-based viability assays light output follows the ATP content of the culture.

The test system of data set [2] is SJ-GBM2. The data set is described as above. Type of data set: cell-based, human. The following applies: for IC50: SJ-GBM2, metabolic activity. On the procedure: as §1, §2
The subject of data set [3] is TP53mut cancer cell lines SJ-GBM2 and UW228-2. The data set can be described thus: Drug combination screen (synergy scores, SynergyFinder+). The class given is cell-based, human. The following applies: TP53mut brain cancer cell lines. How it is done: Drugs were tested in combinations in vitro using TP53^mut cancer cell lines SJ-GBM2 and UW228-2. […] Cell metabolic activity was measured in the same way as in the single drug screen (3 technical replicates x min. 3 biological replicates for each condition).
(§3) In analysis of the results from PDO lines Synergy finder+ was used and growth curves were generated using R version 4.2.2 (package drc). Presented synergy scores are averages across 3 biological replicates (each with two technical replicates, from which a mean value was calculated).

Another data set concerns orthotopic GBM model. To be noted: cited from earlier work.
The test system of data set [4] is DKFZ-BT084 PDX (LFS-associated SHH-MB), orthotopic in NSG mice. The data set can be described thus: In vivo drug testing in LFS SHH-MB PDX model. Also noted: species or system mouse. To be noted: adavosertib 60 mg/kg p.o. 5 times/week, vincristine 0.5 mg/kg i.p. once weekly, 4 weeks. How it is done: Animal experiment permits (G-193/21 and G-135/23) were issued by the Regional Council in Karlsruhe. In in vivo drug treatment and in vivo target dependence experiments female NOD.Cg-Prkdc^scidIl2rg^tm1Wjl/SzJ (NSG) mice were used. Intracranial patient-derived xenograft (PDX) tumor cell injections were performed in 6-8-week old animals. Following LFS-associated SHH-MB PDX models were injected: DKFZ-BT084[86] (relapsed tumor), LFS_primary[78] (gift from Prof. Aurélie Ernst, treatment-naive) and HS231222 (newly-established model, treatment-naive). After tumor detection mice were randomly assigned into 4 treatment groups (4-5 animals/group) without blinding.
LFS_primary[78] (gift from Aurélie Ernst) and HS231222. […] The control group received treatment with solvents only.

The test system of the next data set is SJGBM-2 and UW228-2. The experiment in a line: Validation in established cell lines, Emax criterion in both cancer cell lines. The class given is cell-based. To be noted: Homo sapiens; SJGBM-2 and UW228-2, selection criterion; read-out: maximum effect (Emax) in cancer cell lines.
Excerpt: as §2

The test system of data set [5] is TP53mut SHH-MB patient-derived organoid MED113FH. The experiment in a line: Drug treatment assay in PDOs (72 h, CellTiter-Glo 3D). Type of data set: cell-based, human. The following applies: PDO MED113FH, single drug. On the procedure: (§4) Cells were treated with DMSO as negative control and with Staurosporine (10 μM) (BIO-CONNECT BV, cat.no. 62996-74-1) as positive control. Metabolic activity was measured 72h after drug treatment by adding 40 μL of CellTiter-Glo 3D cell viability assay (Promega, cat.no. G9683) to each well, shake for 5 minutes using the Multidrop Combi system dispenser and incubated at room temperature and in the dark for an additional 25 minutes. Thereafter, bioluminescence was measured using the CLARIOstarplus (BMG Labtech) plate reader. Results were normalized to DMSO negative controls (100% viability) and Staurosporine positive controls (0% viability).
as §3

Data set [6] deals with TP53mut SHH-MB patient-derived organoid B062-008. Described as above. Type of data set: cell-based, human. To be noted: PDO B062-008, single drug. How it is done:
as §4, §3

Data set [7] deals with TP53mut SHH-MB patient-derived organoid B062-13315. Described as above. The class given is cell-based, human. The following applies: PDO B062-13315, single drug. How it is done:
as §4, §3

Data set [8] concerns UW228-2. The data set can be described thus: WEE1 siRNA knockdown and vincristine, cell viability after 72 hours. The class given is cell-based. To be noted: Homo sapiens; UW228-2, 72 hours, vincristine 0.5 nM, compared to control siRNA. How it is done:
(§5) SJ-GBM2 and UW228-2 cells were transfected with ON-TARGETplus Human WEE1 siRNA (SMARTPool, cat.no. L-005050-00, Dharmacon Reagents) using Lipofectamine RNAiMAX Transfection Reagent (cat. no. 13778075, Invitrogen). WEE1 knockdown at protein level was confirmed by Western blot (α-WEE1 antibody [B-11], cat.no. sc-5285, Santa Cruz Biotechnology). After 72 hours cell viability was measured as described in Single drug screening method section. Caspase assay was performed 48 hours after treatment according to manufacturer instructions (cat.no. ab39383, Abcam).
(§6) Western blot bands were quantified using ImageJ (version 1.50b, Wayne Rasband and co., NIH). The readouts from 3 biological replicates were analyzed using R version 4.2.2 (packages ggplot2, DSS, stats) and presented as mean values with standard deviations.

Data set [9] has as its system SJ-GBM2. The data set is described as above. The class given is cell-based. The following applies: Homo sapiens; SJ-GBM2, 72 hours, vincristine 0.5 nM, compared to control siRNA. On the procedure: as §5, §6
For data set [10], the system named is Trp53+/- LFS mouse model (Trp53tm1Tyj/J). How it is done:
At the age of 6-8-weeks mice were randomly assigned into 4 treatment groups (3-4 animals/group) without blinding.
4-week treatment period was followed by 4-week observation period to monitor for drug toxicity-related symptoms. Afterwards the animals were sacrificed and organs (brain, liver, spleen and kidney) were extracted. Tissues were fixed for 48 hours in Roti®-Histofix 4 % (cat.no. P087.5, Roth) followed by dehydration in 50% Ethanol. […] For γH2AX (p-S139) staining 4 μm FFPE tissue sections were cut, deparaffinized and re-hydrated. […] Antibody- and H&E-stained specimens were evaluated by the pathologist (T.G.P.G.). Images were taken with the Leica DM3000 LED microscope (10-fold magnification) and analyzed using Fiji v.2.16.0 (Java 8) and R version 4.2.2 (packages ggplot2 and ggsignif).
At the stage of designing experiments, a power analysis was performed for BT084 and LFS_primary models using R version 4.1.0 (type I error: 5%, type II error: 20%). Survival, IVIS readout and weight was analyzed using R version 4.2.2 (packages stat, ggplot2, ggsignif, survival, survminer and stats). Images were analyzed using Fiji v.2.16.0 (Java 8) and R version 4.2.2 (packages ggplot2 and ggsignif).

In data set [11] the test system is caspase-3 activity in SJ-GBM2 and UW228-2. The data set can be described thus: Caspase-3 assay (fluorometric) 48 hours after treatment. Type of data set: cell-based, human. To be noted: SJ-GBM2 and UW228-2, 48 hours. How it is done: as §5
The conditions of data set [12]: Cmax from literature; ref PMID: 32635465; cited from earlier work.
In data set [13] the test system is TP53mut SHH-MB patient-derived organoids (PDOs). The experiment in a line: Drug treatment assay in PDOs, summary over all three PDO models. Type of data set: cell-based. To be noted: Homo sapiens. On the procedure: as §4, §3
For the next data set, the system named is LFS fibroblasts. The data set can be described thus: Genotoxicity screen, Micronucleus Test (MNT). The arrangement: key: MNT score = number of micronuclei / number of nuclei. The class given is cell-based, human. To be noted: Cmax concentration (or concentration causing 20% decrease of viability), 120 h, median. How it is done: To evaluate genotoxicity of compounds, the Micronucleus Test (MNT)[96]^,[97] method was used. […] Next, the cells were visualized using ImageXpress Micro 4 High-Content Imaging System (Molecular Devices, LLC) and 4 images for each well were analyzed with CellProfiler version 4.1.3 (the pipeline described in the supplementary information).
The MNT score for a specific compound was calculated according to a following formula: MNTscore=(numberofmicronuclei/numberofnuclei)
Resulting MNT scores were compared to negative (DMSO) and positive (mitomycin C) control scores using Welch t-test (R version 4.2.2, packages stat, ggplot2). If scores were statistically different from positive control, then the compound was classified as non-genotoxic. If scores were statistically different from negative control, then the compound was classified as genotoxic.

Like-named read-outs stand apart in the source and are kept apart here.

Take `Cc1cc(Nc2ncc3c(n2)N(C)CN(c2c(Cl)cccc2Cl)C3=O)ccc1C1CCN(C)CC1` [Debio 0123]: the IC50 (as a rule, the concentration that gives 50% inhibition) stood at 270 nM in the data set on UW228-2 [1] and 147 nM with SJ-GBM2 [2]. The “interaction in combination with vinca alkaloid (synergy score)” value in data set [3] is “additive interaction”. Further, the BBB penetration result in the data set with orthotopic GBM model is on record as “ability to cross BBB”.

`CC[C@]1(O)C[C@H]2CN(CCc3c([nH]c4ccccc34)[C@@](C(=O)OC)(c3cc4c(cc3OC)N(C=O)[C@H]3[C@@](O)(C(=O)OC)[C@H](OC(C)=O)[C@]5(CC)C=CCN6CC[C@]43[C@@H]65)C2)C1` [Vincristine]: the Emax (in general, the greatest response seen or fitted, relative to the assay's reference) is 52.2% in the data set on UW228-2 [1] (Homo sapiens, UW228-2, validation, maximum effect, 0.1-10,000 nM, 72 h); 92.5% in the data set with SJ-GBM2 [2] (Homo sapiens, validation, maximum effect, 0.1-10,000 nM, 72 h); > 50% with SJGBM-2 and UW228-2. Moreover, the 50% inhibitory concentration (IC50) turned out to be 0.9 nM in the data set on UW228-2 [1] (Homo sapiens); 1.1 nM in the data set with SJ-GBM2 [2] (Homo sapiens); 11.9 nM in data set [5] (Homo sapiens); 7.24 nM in data set [6] (Homo sapiens); 1.38 nM in data set [7] (Homo sapiens); 6.8 nM in [13] (mean over three PDOs, metabolic activity, read-out: mean IC50). Besides, the IC50 in data set [13] (range over three PDOs, read-out: IC50 range) fell in the range of 1.38 to 11.9 nM. Moreover, the “Median lifespan since tumor detection” value in data set [4] is reported as 20.5 days. For the same compound, the DSS in data set [5] is listed as 16,96; in [6] it was 22,69; in data set [7], 54,34. Moreover, the viability (commonly a per cent measure of how many cells are alive, often set against a control) at 0.0005 µM in the data set on UW228-2 [8] stood at 80.2%; with SJ-GBM2 [9], 62.9%. Also, the Survival in [10] (Trp53+/- mice, 4-week treatment and 4-week observation period) turned out to be 100%. Also, the “genotoxicity or organ-specific toxicities” value in [10] (mouse, in vivo) was “low to no genotoxicity or organ-specific toxicities”. Besides, in data set [11], the caspase-3 activity result was “did not influence caspase-3 activity”. In addition, the Cmax (usually the maximum level reached in the sampled fluid or tissue) in data set [12] was 36 nM. Moreover, the “MNT_median (micronucleus test score)” value in the data set with LFS fibroblasts is listed as 2,59.
